Test results published in patent publication US20250101102A1, “BISPECIFIC ANTIBODY AGAINST CD3 AND CD20 IN COMBINATION THERAPY FOR TREATING DIFFUSE LARGE B-CELL LYMPHOMA” (GENMAB A/S, priority 2022, published 2025).
Like-named read-outs stand apart in the source and are kept apart here.

Assays:
[1] = system: T cells; test: T cell viability after pretreatment with CHP components; format: cell-based
[2] = system: relapsed or refractory (R/R) B-NHL; highly refractory large B-cell lymphoma; settings: cited from earlier work
[3] = system: CD20-expressing Daudi cells; settings: 333 ng/ml DuoBody-CD3xCD20, 4 donors
Experimental: Briefly, T cells were pre-incubated with cyclophosphamide, doxorubicin, or prednisone for 16 hours and subsequently used in a cytotoxicity assay with epcoritamab and CD20-expressing Daudi cells as target cells (E: T ratio 2:1), in which cyclophosphamide, doxorubicin, or prednisone was added in the same concentration as during pre-incubation, respectively. Data are presented as percent viable target cells (CD4-CD8-CD22+), normalized to medium control (no Ab, no CHP component).

[4] = system: CD20-expressing Raji-luc tumor cells; settings: NOD-SCID mice injected with Raji-luc tumor cells and PBMCs; even in the presence of an excess of IgG1-RTX-FEAR; cited from earlier work
[5] = system: primary DLBCL and follicular lymphoma patient biopsies; settings: cited from earlier work
[6] = T cells pre-incubated for 16 hours
[7] = highly refractory large B-cell lymphoma, n=157

Compound: O=P1(N(CCCl)CCCl)NCCCO1 (centres unmarked) [cyclophosphamide, 2H-1,3,2-Oxazaphosphorin-2-amine, N,N-bis(2-chloroethyl)tetrahydro-, 2-oxide]
- T cell viability after pretreatment [1]: did not impact T cell viability

Compound: COc1cccc2c1C(=O)c1c(O)c3c(c(O)c1C2=O)C[C@@](O)(C(=O)CO)C[C@@H]3O[C@H]1C[C@H](N)[C@H](O)[C@H](C)O1 [doxorubicin]
- T cell viability after pretreatment [1, 6]: reduction in T cell viability

Compound: C[C@]12C=CC(=O)C=C1CC[C@@H]1[C@@H]2C(=O)C[C@@]2(C)[C@H]1CC[C@]2(O)C(=O)CO [prednisone, 17,21-dihydroxypregna-1,4-diene-3,11,20-trione]
- T cell viability after pretreatment [1, 6]: did not impact T cell viability

Compound: epcoritamab: IgG1 bispecific CD3×CD20 antibody; heavy and light chain pairs SEQ ID NOs: 24/25 (CD3ε arm) and 26/27 (CD20 arm); CAS 2134641-34-0
- complete response (CR) rate [2, 7]: 39%
- median duration of response (DOR) [2, 7]: 12 months
- overall response rate (ORR) [2, 7]: 63%
- safety profile ([2]; in vivo): manageable safety profile
- viable B cells left after incubation ([3]; T cells pretreated with cyclophosphamide, FIG. 1A right panel): very low percentages of viable B cells
- viable B cells left after incubation ([3]; T cells pretreated with prednisone, FIG. 1C right panel): very low percentages of viable B cells
- tumor growth in the xenograft model [4]: effectively reduce tumor growth
- T-cell-mediated cytotoxicity [5]: induced T-cell-mediated cytotoxicity
